Data as given in ChEMBL document CHEMBL3507680, “University of Dundee, Gates Library screen for HepG2 cell viability”.

Assay: Human HepG2 cell viability assay in 384 well format
Assay type: toxicity, cell-based
Set-up: dose 125 nL, time 70.5 hour; cytotoxicity at 70.5 h: concentration not given beside the values
Details: HepG2 cells, read-out: Inhibition

| Compound | cytotoxicity at 70.5 h |
| --- | --- |
| COCCCN1CCCN(C(C)C(=O)Nc2ccnn2C(C)C)CC1 (centres undefined) | -4% |
| COc1cccc(CN(C)Cc2cccc(C#N)c2)c1OC | -3.83% |
| CNS(=O)(=O)c1cccc(C(C)NCc2cccc(OC)c2)c1 (centres undefined) | 10.9% |
| CNS(=O)(=O)c1cccc(C(C)NCc2ccccc2)c1 (centres undefined) | -2.31% |
| CC(NCC1=Cc2cc(Cl)ccc2OC1)c1nnc2n1CCCC2 (centres undefined) | -3.35% |
| Cc1ccc(CNCc2nnc3n2CCCC3C(F)(F)F)s1 (centres undefined) | -10.1% |
| CCCS(=O)(=O)N1CCC(NC(=O)c2ccc(Cl)s2)CC1 | -11.6% |
| CCCS(=O)(=O)N1CCC(NC(=O)c2cc(C)c(CC)s2)CC1 | -12.1% |
| CCC(=O)NCc1cc(Br)ccc1OC(F)F | -6% |
| Cc1cc(C2CCCN2C(=O)NCc2cccc(F)c2)on1 (centres undefined) | -8.57% |
| CCCSCC(=O)Nc1ncn(CC(=O)NCc2ccccc2)n1 | -5.44% |
| Cc1cnn(Cc2cc(F)ccc2F)c1NC(=O)NC1CC1 | -7.32% |
| CCCNC(=O)CCNC(=O)Cc1nc(-c2ccco2)oc1C | -4.05% |
| Cc1cccc(NC(=O)[C@@H]2CCCN2CC(=O)N2CCCCCC2)n1 | -4.62% |
| Cc1cnn(C2CN(CC(O)c3ccc4c(c3)OCCO4)C2)c1 (centres undefined) | -3.93% |
| Cc1cc(S(=O)(=O)N2CCCc3ccc(F)cc32)sc1C(=O)O | -2.82% |
| N#CC(Sc1nnnn1C1CCOCC1)C1CCCCC1 (centres undefined) | -3.62% |
| Cc1cc(C(=O)NC2CCCN(c3ccccc3)C2=O)on1 (centres undefined) | 0.654% |
| CS(=O)(=O)NCC(=O)N1CCCC1c1noc(C2CC2)n1 (centres undefined) | -2.26% |
| Cc1cc(NC(=O)Cn2cc(C#N)c(=O)c3cc(Br)ccc32)no1 | 0.537% |
| COCc1nc2n(n1)CCCC2Nc1nc(C2CC2)ns1 (centres undefined) | 1.93% |
| CCc1nsc(NC2CCCn3nc(COC)nc32)n1 (centres undefined) | -3.94% |

| Compound | cytotoxicity at 70.5 h |
| --- | --- |
| CSC(C)(C)CNC(=O)NC1CCN(C)CC1 | -3.38% |
| COc1cccc(Cc2nnc(SC3CCOC3=O)o2)c1 (centres undefined) | -5.61% |
| COC(=O)CCN1CCCC1c1ccccc1Cl (centres undefined) | -6.47% |
| N#Cc1cccc(CS(=O)(=O)NCCC(O)c2ccccc2)c1 (centres undefined) | -10% |
| Cc1ccc(C2COCCN2C(=O)c2ccc(N(C)C)cc2)o1 (centres undefined) | -8.97% |
| COc1ncccc1NC(=O)N1CCC(CNC(C)=O)CC1 | -7.14% |
| O=C(NCCN1CCOCC1)NCc1ncc(-c2ccccc2)o1 | -11.5% |
| CCc1ncc(C(=O)NCCNC(=O)Cc2ccc(F)cc2)s1 | -11.7% |
| Cn1c(C(=O)N2CCC(C(=O)N3CCCC3)CC2)c(Cl)c2ccccc21 | -9.31% |
| CCS(=O)(=O)c1ccc(N2CCC(NC(=O)CCC(C)C)CC2)cc1 | -9.09% |
| Cn1ccnc1SCc1nc(C(C)(C)NC(=O)OC(C)(C)C)no1 | 12% |
| c1ccc2c(N3CCCCC3Cn3cncn3)ncnc2c1 (centres undefined) | -9.62% |
| Cc1nc(C)n(CC2CCCCN2CC(=O)Nc2nncs2)n1 (centres undefined) | -1.06% |
| Cc1cnn(CCNCc2ccc(OCC(N)=O)cc2)c1 | -6.65% |
| Cc1cc(C)n(CC2CCCCN2CC(=O)Nc2cccnc2)n1 (centres undefined) | 17.8% |
| O=C(CC1=CCCCC1)NCCc1csc(N2CCCC2)n1 | -0.0397% |
| CC(O)CN1CCN(C(=O)c2cnn(-c3ccc(Cl)cc3)c2)CC1 (centres undefined) | -5.02% |
| c1nc(N2CCCCC2Cn2cncn2)c2ccsc2n1 (centres undefined) | 14.7% |
| c1ccc(OCCN2CCCC(c3noc(C4CC4)n3)C2)cc1 (centres undefined) | -0.448% |
| O=C(O)c1ccc(F)c(S(=O)(=O)Nc2c(F)cccc2-n2cccn2)c1 | -5.11% |
| c1coc(CN2CCO[C@@]3(CCC[C@@H]3COCc3nccs3)C2)c1 | -13.3% |
| Cc1noc(C)c1CN1C[C@@H]2COC[C@@H](C(=O)N3CCCO3)[C@@H]2C1 | 51.2% |

| Compound | cytotoxicity at 70.5 h |
| --- | --- |
| O=C(c1cccs1)N1CC[C@@H]2[C@H]1CCC(=O)N2c1ccccc1 | -16.9% |
| CC(=O)NCC(=O)N1CCN(Cc2cccnc2)c2ncccc2C1 | -15.1% |
| CC(=O)NCC(=O)N1CCN(Cc2ccncc2)c2ncccc2C1 | 16.8% |
| c1cc(CN2CCOCC3(CCNCC3)C2)ccn1 | 23% |
| CCS(=O)(=O)NC1CCc2c(ccc(=O)n2CC2CC2)C1 (centres undefined) | -7.75% |
| COCC(=O)N1CCCC2(CCN(c3cncnc3)C2=O)C1 (centres undefined) | -8.34% |
| Cc1occc1C(=O)N1CCCC2(CCN(c3ccsc3)C2=O)C1 (centres undefined) | -6.53% |
| COCC(=O)N1CCCC2(CCN(c3ccccc3)C2=O)C1 (centres undefined) | -13.1% |
| COCCC(=O)N1CCC2(CN(Cc3cccc(F)c3)C2)C1 | -7.85% |
| CN1CCN([C@H]2COC[C@@H]3CN(Cc4cccnc4)C[C@@H]32)CC1 | -8.25% |
| CCS(=O)(=O)NCC1Cn2nnc(-c3ccccc3)c2CO1 (centres undefined) | -1.57% |
| c1cnc(NCC2Cn3nnc(-c4ccsc4)c3CO2)nc1 (centres undefined) | -8.81% |
| c1cnc(NCC2Cn3nnc(-c4ccoc4)c3CO2)nc1 (centres undefined) | -13.1% |
| O=C(CO)N1CCCC2(CCN(c3ccsc3)C2=O)C1 (centres undefined) | -8.82% |
| Cc1ccc2c(n1)N(CCN(C)C)CCN(C(=O)c1ccco1)C2 | -4.83% |
| CCS(=O)(=O)N1CCn2cc(CN(C)Cc3ccco3)nc2C1 | -2.7% |
| COCCC(=O)N1CC2(CCN(Cc3ccncc3)CC2)C1 | -1.69% |
| O=C(c1cscn1)N1CCc2ncc(Cn3cncn3)n2CC1 | -6.09% |
| O=C(c1ccco1)N1CCn2cc(CN3CCCC3)nc2C1 | -1.74% |
| Cc1ccoc1C(=O)N1CCn2cc(CN3CCCC3)nc2C1 | -4.12% |
| COCCC(=O)N1CC[C@H]2O[C@@H](C)C[C@H]2C1 | -7.16% |
| O=C(c1ccno1)N1CCn2cc(CN3CCCCC3)nc2C1 | -2.37% |

| Compound | cytotoxicity at 70.5 h |
| --- | --- |
| O=C(c1ccc2[nH]ccc2c1)N1CCn2cc(CN3CCCC3)nc2C1 | -13.7% |
| Cc1cc(N2CCN(C(=O)Cc3ccc4c(c3)OCO4)CC2)cc(C)n1 | -9.94% |
| COCCc1ncc(CN2CCC3(CCCN(CC4CC4)C3)C2)cn1 (centres undefined) | 0.629% |
| CCCN1C[C@H]2CC[C@@H]1CN(Cc1cccc(O)c1)C2 | -9.57% |
| COc1c(CNC2CCc3c(Cl)cccc32)c(C)nn1C (centres undefined) | -12.4% |
| O=C1COC2(CCN(CC3CC3)CC2)CN1c1ccsc1 | -8.69% |
| CN(C)[C@@H]1CCN(C(=O)CC2CC2)[C@H]1Cc1cnn(C)c1 | -7.51% |
| CCN1C[C@H]2[C@@H](C1)N(S(=O)(=O)c1ccccc1)CC[C@H]2OC | -2.93% |
| COCCN1C(=O)C[C@H]2[C@H]1CCN2Cc1ccccc1 | -4.06% |
| COCCCNC(=O)c1cc(-c2cnc(N3CCOCC3)nc2)cn1C | -6.15% |
| Cc1cccc(C(=O)N2CC[C@@H]3[C@H]2CCC(=O)N3c2ccccc2)n1 | 17.8% |
| O=C(C1CCOCC1)N1CCO[C@H]2[C@H](Oc3ccccn3)CC[C@@H]21 | 13.9% |
| Cc1occc1C(=O)N1C[C@H](Oc2ccccn2)[C@H]2OCCC[C@H]21 | -10.8% |
| Cc1ccc(C(=O)N2CC[C@H]3[C@@H]2CCC(=O)N3c2ccccc2)cn1 | -12.4% |
| O=C(NCC1CC1)[C@H]1CN(Cc2nccs2)C[C@H]2OCC[C@@H]12 | -9.38% |
| Cc1occc1C(=O)N1CCO[C@H]2[C@H](OCc3ccccn3)CC[C@@H]21 | -7.78% |
| O=C([C@@H]1CN(Cc2nccs2)C[C@H]2OCC[C@H]21)N1CCOCC1 | -7.1% |
| Cc1ncsc1CN1C[C@@H]2COC[C@]2(C(=O)NC(C)C)C1 | -11.1% |
| O=C(c1cscn1)N1CCO[C@H]2[C@@H](Oc3ccccn3)CC[C@@H]21 | -10.4% |
| Fc1ccc(N2CCOC3(COCCN(c4ncccn4)C3)C2)cc1 (centres undefined) | -6.83% |
| O=C(c1ccoc1)N1CCOC2(COCCN(c3ncccn3)C2)C1 (centres undefined) | -7.67% |
| O=C(NC1CC1)[C@@H]1C[C@@H]2CCN(Cc3ccccc3)C[C@@H]2O1 | 25.4% |

| Compound | cytotoxicity at 70.5 h |
| --- | --- |
| CC(C)NC1CCc2c(ccc(=O)n2CC2CC2)C1 (centres undefined) | 4.51% |
| Cc1ncsc1CN1C[C@@H]2COC[C@]2(CNC(=O)c2ccco2)C1 | -10.4% |
| O=C(NC1CC1)[C@@H]1C[C@@H]2CCN(Cc3ccccc3)C[C@H]2O1 | -9.32% |
| c1cncc(CN2CC[C@H]3O[C@@H](COCC4CCOCC4)CC[C@H]32)c1 | -7.03% |
| c1cncc(CN2CCn3c(Cn4cncn4)cnc3C2)c1 | -7.44% |
| O=C(c1ccco1)N1CCN2C[C@H](OCc3cccnc3)C[C@H]2C1 | -12.3% |
| c1cncc(OC[C@@H]2CCC[C@@]23CN(Cc2nccs2)CCO3)c1 | -2.19% |
| Cn1nnc2c1CCN(Cc1ccccn1)C2COCc1ccccc1 (centres undefined) | 14.7% |
| O=C([C@H]1CN(Cc2nccs2)C[C@H]2OCC[C@@H]12)N1CCCCO1 | -10.9% |
| CN(Cc1cn2c(n1)CN(C1CCOCC1)CC2)Cc1ccco1 | 24.6% |
| CN(Cc1cn2c(n1)CN(Cc1ccsc1)CC2)Cc1ccco1 | -6.14% |
| Cc1ccc2c(n1)N(CCN(C)C)CCN(C(=O)c1cccs1)C2 | -5.81% |
| Fc1cccc(N2CCCC3(CN(Cc4nccs4)CCO3)C2)c1 (centres undefined) | -13.6% |
| O=C(C1CCOC1)N1CCC2(CC1)COCCN(Cc1ccncc1)C2 (centres undefined) | -11.2% |
| CN(Cc1cn2c(n1)CN(Cc1nccs1)CC2)Cc1ccco1 | -7.68% |
| CN(Cc1cn2c(n1)CN(CC1CCOC1)CC2)Cc1ccco1 (centres undefined) | 1.38% |
| CN(C)C(=O)CN1CC[C@@H]2O[C@@H](COCc3cccnc3)CC[C@@H]21 | -1.43% |
| CN(C)[C@@H]1CCN(C(=O)Cc2cccs2)[C@H]1Cc1ccncc1 | -8% |
| c1ccc(COC[C@H]2CC[C@H]3[C@H](CCN3Cc3ccccn3)O2)nc1 | -10.3% |
| COc1ccc(CN2C[C@@H]3COC[C@H](N4CCN(C)CC4)[C@@H]3C2)cc1 | -5.19% |
| c1cc(CN2CCOCC3(CCN(CC4CCOCC4)CC3)C2)ccn1 | -7.05% |
